Measurements: patent US10544143B2, “4-azaindole compounds” (BRISTOL-MYERS SQUIBB COMPANY, priority 2017, dated 2020)
Where two headings read alike, the source gives them in different places.

Columns and labels:
human TLR9 = human TLR9 (Homo sapiens (Human), UniProt Q9NR96); assay: TLR9 inhibition reporter assay (HEK-Blue SEAP); conditions: read-out: TLR9 IC50, ODN2006 5 nM;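 note: SEAP driven by an IFN-β minimal promoter with NF-κB and AP-1 sites, read after 22 h, compounds dosed 0.05 nM–50 µM, inhibition scaled between agonist plus DMSO and reference-inhibitor wells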
human TLR9, sequence (Q9NR96 26-1032): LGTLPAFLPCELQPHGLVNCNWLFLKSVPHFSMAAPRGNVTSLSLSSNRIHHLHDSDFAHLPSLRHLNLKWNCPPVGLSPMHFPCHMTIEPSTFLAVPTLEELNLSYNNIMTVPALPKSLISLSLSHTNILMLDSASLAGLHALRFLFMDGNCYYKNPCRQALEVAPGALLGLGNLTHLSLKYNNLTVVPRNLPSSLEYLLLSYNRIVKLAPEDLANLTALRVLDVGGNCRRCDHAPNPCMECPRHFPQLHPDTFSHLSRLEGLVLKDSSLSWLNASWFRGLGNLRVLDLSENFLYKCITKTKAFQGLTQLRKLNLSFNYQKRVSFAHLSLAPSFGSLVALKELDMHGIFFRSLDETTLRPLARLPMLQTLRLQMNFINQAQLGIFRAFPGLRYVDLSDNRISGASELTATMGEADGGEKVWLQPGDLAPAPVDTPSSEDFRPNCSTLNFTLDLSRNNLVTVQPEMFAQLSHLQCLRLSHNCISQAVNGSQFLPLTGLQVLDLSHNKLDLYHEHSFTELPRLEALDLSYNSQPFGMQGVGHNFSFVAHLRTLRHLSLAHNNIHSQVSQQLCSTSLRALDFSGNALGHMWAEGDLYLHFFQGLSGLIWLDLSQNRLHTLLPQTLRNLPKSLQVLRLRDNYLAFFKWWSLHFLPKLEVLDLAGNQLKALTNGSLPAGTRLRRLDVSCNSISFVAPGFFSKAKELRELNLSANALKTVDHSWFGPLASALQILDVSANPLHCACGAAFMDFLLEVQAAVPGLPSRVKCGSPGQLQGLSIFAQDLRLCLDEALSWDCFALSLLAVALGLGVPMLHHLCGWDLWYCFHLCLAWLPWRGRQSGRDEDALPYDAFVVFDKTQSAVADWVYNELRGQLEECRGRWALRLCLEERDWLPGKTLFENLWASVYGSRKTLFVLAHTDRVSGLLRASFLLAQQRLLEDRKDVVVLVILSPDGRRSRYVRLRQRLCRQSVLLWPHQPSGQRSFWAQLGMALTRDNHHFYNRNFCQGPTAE

human TLR7 = human TLR7 (Homo sapiens (Human), UniProt Q9NYK1); assay: TLR7 inhibition reporter assay (HEK-Blue SEAP); format: cell-based; conditions: gardiquimod 7.5 μM
human TLR7, sequence (Q9NYK1 27-1049): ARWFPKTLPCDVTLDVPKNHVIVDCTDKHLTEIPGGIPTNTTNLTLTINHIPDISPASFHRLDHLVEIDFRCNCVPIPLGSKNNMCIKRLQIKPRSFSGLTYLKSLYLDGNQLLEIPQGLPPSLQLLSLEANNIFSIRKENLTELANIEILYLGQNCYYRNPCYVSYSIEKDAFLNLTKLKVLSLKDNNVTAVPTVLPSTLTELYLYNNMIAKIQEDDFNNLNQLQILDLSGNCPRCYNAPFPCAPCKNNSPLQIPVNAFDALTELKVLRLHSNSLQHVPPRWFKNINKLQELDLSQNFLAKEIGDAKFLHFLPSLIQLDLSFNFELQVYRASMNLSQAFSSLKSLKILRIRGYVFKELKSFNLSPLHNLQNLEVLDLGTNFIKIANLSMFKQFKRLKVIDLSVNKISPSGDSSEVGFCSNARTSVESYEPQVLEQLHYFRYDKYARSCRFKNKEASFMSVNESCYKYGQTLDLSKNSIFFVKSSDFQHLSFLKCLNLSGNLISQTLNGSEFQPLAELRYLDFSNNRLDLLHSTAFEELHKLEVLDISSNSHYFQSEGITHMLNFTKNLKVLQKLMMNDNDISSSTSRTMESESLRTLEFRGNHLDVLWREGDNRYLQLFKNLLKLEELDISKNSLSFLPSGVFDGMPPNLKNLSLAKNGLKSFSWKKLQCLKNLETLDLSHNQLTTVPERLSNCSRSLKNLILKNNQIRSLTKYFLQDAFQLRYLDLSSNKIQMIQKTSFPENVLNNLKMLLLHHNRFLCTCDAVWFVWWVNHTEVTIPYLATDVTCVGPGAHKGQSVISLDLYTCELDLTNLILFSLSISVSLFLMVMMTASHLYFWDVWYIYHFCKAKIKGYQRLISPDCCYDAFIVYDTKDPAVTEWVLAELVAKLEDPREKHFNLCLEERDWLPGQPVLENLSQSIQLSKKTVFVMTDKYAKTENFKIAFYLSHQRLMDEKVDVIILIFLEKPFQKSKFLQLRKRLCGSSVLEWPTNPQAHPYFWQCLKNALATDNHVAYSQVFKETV

human TLR8 = human TLR8 (Homo sapiens (Human), UniProt Q9NR97); assay: TLR8 inhibition reporter assay (HEK-Blue SEAP); conditions: read-out: TLR8 IC50, R848 15.9 μM;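 note: SEAP driven by IFN-β minimal promoter carrying NF-κB and AP-1 sites, compounds dosed 0.05 nM to 50 µM for 22 h, inhibition scaled between agonist-plus-DMSO and reference-inhibitor wells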
human TLR8, sequence (Q9NR97 27-1041): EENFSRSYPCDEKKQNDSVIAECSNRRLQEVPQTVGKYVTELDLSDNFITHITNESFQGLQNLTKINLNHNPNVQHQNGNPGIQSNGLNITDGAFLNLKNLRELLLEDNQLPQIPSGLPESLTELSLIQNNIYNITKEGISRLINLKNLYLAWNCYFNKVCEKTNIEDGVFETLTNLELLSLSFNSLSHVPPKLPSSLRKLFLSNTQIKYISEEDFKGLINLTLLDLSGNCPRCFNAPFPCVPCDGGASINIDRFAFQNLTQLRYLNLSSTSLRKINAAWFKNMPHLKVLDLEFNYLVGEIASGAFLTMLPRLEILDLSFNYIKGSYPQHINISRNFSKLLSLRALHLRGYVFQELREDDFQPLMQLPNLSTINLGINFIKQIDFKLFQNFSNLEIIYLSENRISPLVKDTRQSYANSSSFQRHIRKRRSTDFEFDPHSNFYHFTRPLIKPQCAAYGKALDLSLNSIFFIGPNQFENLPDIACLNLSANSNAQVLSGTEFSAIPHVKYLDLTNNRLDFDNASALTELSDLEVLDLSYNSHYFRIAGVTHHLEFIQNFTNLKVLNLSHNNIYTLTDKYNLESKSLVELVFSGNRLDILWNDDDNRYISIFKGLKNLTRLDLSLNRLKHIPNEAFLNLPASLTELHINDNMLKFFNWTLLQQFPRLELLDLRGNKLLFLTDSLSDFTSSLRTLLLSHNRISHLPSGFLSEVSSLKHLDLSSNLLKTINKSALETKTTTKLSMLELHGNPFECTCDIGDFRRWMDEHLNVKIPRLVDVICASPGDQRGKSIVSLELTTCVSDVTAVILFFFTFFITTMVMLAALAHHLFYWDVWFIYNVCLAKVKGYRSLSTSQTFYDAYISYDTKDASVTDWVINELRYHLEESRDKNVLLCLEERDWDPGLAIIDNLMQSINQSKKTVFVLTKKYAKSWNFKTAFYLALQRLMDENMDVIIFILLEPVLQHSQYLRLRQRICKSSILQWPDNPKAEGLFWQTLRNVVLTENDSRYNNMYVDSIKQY

[1] = HEK-Blue cells overexpressing human TLR9, SEAP reporter
[2] = HEK-Blue cells overexpressing human TLR7, SEAP reporter
[3] = HEK-Blue cells overexpressing human TLR8, SEAP reporter

| IC50 (human TLR9; [1]) | IC50 (human TLR7; [2]) | IC50 (human TLR8; [3]) | IC50 (human TLR9; HEK-Blue human TLR9 cells) | IC50 (human TLR7; HEK-Blue human TLR7 cells) | IC50 (human TLR8; HEK-Blue human TLR8 cells) | Compound |
| --- | --- | --- | --- | --- | --- | --- |
| 10300 nM | 0.38 nM | 0.53 nM |  |  |  | Cc1c(-c2[nH]c3ccc(N4[C@@H](C)CN(C(=O)CN(C)C)C[C@@H]4C)nc3c2C(C)C)cn2ncnc2c1C [Example 752] |
| 5220 nM | 0.7 nM | 1.9 nM |  |  |  | Cc1c(-c2[nH]c3ccc(N4C[C@H](C)N[C@@H](C)C4)nc3c2C(C)C)cn2ncnc2c1C [Example 757] |
| 8300 nM | 2.1 nM | 3.2 nM |  |  |  | Cc1c(-c2[nH]c3ccc(N4C[C@H](C)N(C(=O)CN(C)C)C[C@@H]4C)nc3c2C(C)C)cn2ncnc2c1C [Example 788] |
| 13300 nM | 3.2 nM | 3.7 nM |  |  |  | Cc1c(-c2[nH]c3ccc(N4C[C@H](C)N(C(=O)CCN(C)C)C[C@@H]4C)nc3c2C(C)C)cn2ncnc2c1C [Example 789] |
| 18100 nM | 5.3 nM | 1.1 nM |  |  |  | Cc1c(-c2[nH]c3ccc(N4CCN(CCC(N)=O)[C@@H](C)C4)nc3c2C(C)C)cn2ncnc2c1C [Example 791] |
| 8560 nM | 4 nM | 1 nM |  |  |  | Cc1c(-c2[nH]c3ccc(N4CCN(C(C)C)[C@@H](C)C4)nc3c2C(C)C)cn2ncnc2c1C [Example 792] |
|  |  |  | 18000 nM | 1.4 nM | 1.5 nM | Cc1c(-c2[nH]c3ccc(N4C[C@H](C)N(CCC(N)=O)C[C@@H]4C)nc3c2C(C)C)cn2ncnc2c1C [Example 794] |
|  |  |  | > 50000 nM | 12 nM | 8.1 nM | Cc1c(-c2[nH]c3ccc(N4C[C@H](C)N(CCCS(C)(=O)=O)C[C@@H]4C)nc3c2C(C)C)cn2ncnc2c1C [Example 795] |
|  |  |  | 11300 nM | 6 nM | 15 nM | Cc1c(-c2[nH]c3ccc(N4C[C@@H](C)N(C(=O)CN(C)C)C[C@H]4C)nc3c2C(C)C)cn2ncnc2c1C [Example 796] |
|  |  |  | 17600 nM | 10 nM | 14 nM | Cc1c(-c2[nH]c3ccc(N4C[C@@H](C)N(C(=O)CCN(C)C)C[C@H]4C)nc3c2C(C)C)cn2ncnc2c1C [Example 797] |
|  |  |  | > 50000 nM | 20 nM | 26 nM | Cc1c(-c2[nH]c3ccc(N4C[C@@H](C)N(CC(N)=O)C[C@H]4C)nc3c2C(C)C)cn2ncnc2c1C [Example 800] |
|  |  |  | 11000 nM | 0.57 nM | 0.56 nM | Cc1c(-c2[nH]c3ccc(N4CCN(C(=O)CN(C)C)C[C@@H]4C)nc3c2C(C)C)cn2ncnc2c1C [Example 801] |
|  |  |  | 18100 nM | 1.2 nM | 0.56 nM | Cc1c(-c2[nH]c3ccc(N4CCN(CCC(N)=O)C[C@@H]4C)nc3c2C(C)C)cn2ncnc2c1C [Example 804] |
|  |  |  | 24200 nM | 2.1 nM | 0.57 nM | Cc1c(-c2[nH]c3ccc(N4CCN(CCCS(C)(=O)=O)C[C@@H]4C)nc3c2C(C)C)cn2ncnc2c1C [Example 805] |
|  |  |  | 16300 nM | 0.95 nM | 1.3 nM | Cc1c(-c2[nH]c3ccc(N4CCN(CCC(N)=O)C[C@H]4C)nc3c2C(C)C)cn2ncnc2c1C [Example 807] |
|  |  |  | 36000 nM | 2.2 nM | 3.1 nM | Cc1c(-c2[nH]c3ccc(N4CCN(CC(N)=O)C[C@@H]4C)nc3c2C(C)C)cn2ncnc2c1C [Example 809] |
|  |  |  | 7360 nM | 0.64 nM | 0.63 nM | Cc1c(-c2[nH]c3ccc(N4CCN(CC#N)C[C@@H]4C)nc3c2C(C)C)cn2ncnc2c1C [Example 810] |
|  |  |  | 5600 nM | 0.36 nM | 0.59 nM | Cc1c(-c2[nH]c3ccc(N4CCN(C(=O)CCN(C)C)C[C@@H]4C)nc3c2C(C)C)cn2ncnc2c1C [Example 811] |
|  |  |  | > 50000 nM | 2.2 nM | 3.6 nM | CNC(=O)CN1CCN(c2ccc3[nH]c(-c4cn5ncnc5c(C)c4C)c(C(C)C)c3n2)[C@@H](C)C1 [Example 812] |
|  |  |  | > 50000 nM | 1.9 nM | 2.3 nM | Cc1c(-c2[nH]c3ccc(N4CCN(C5CCOC5)C[C@@H]4C)nc3c2C(C)C)cn2ncnc2c1C (stereo partly drawn) [Example 814] |
|  |  |  | 8720 nM | 1.7 nM | 1.7 nM | Cc1c(-c2[nH]c3ccc(N4CCN(C(C)C)C[C@@H]4C)nc3c2C(C)C)cn2ncnc2c1C [Example 816] |
|  |  |  | > 50000 nM | 2.1 nM | 2.9 nM | Cc1c(-c2[nH]c3ccc(N4CCN(CCS(C)(=O)=O)C[C@@H]4C)nc3c2C(C)C)cn2ncnc2c1C [Example 817] |
|  |  |  | 12800 nM | 0.78 nM | 0.43 nM | CNC(=O)CCN1CCN(c2ccc3[nH]c(-c4cn5ncnc5c(C)c4C)c(C(C)C)c3n2)[C@@H](C)C1 [Example 818] |
|  |  |  | 9400 nM | 2.7 nM | 2 nM | Cc1c(-c2[nH]c3ccc(N4CCN(C5CCOCC5)C[C@@H]4C)nc3c2C(C)C)cn2ncnc2c1C [Example 820] |
|  |  |  | 6690 nM | 1.3 nM | 1.3 nM | Cc1c(-c2[nH]c3ccc(N4[C@@H](C)CNC[C@@H]4C)nc3c2C(C)C)cn2ncnc2c1C [Example 821] |
|  |  |  | 5790 nM | 1.6 nM | 2.1 nM | Cc1c(-c2[nH]c3ccc(N4CCN(C(=O)CN5CCC5)C[C@@H]4C)nc3c2C(C)C)cn2ncnc2c1C [Example 824] |
|  |  |  | 6280 nM | 0.53 nM | 1.1 nM | Cc1c(-c2[nH]c3ccc(N4CCN(C(=O)CN5CCCC5)C[C@@H]4C)nc3c2C(C)C)cn2ncnc2c1C [Example 825] |
|  |  |  | 7160 nM | 0.88 nM | 1.4 nM | Cc1c(-c2[nH]c3ccc(N4CCN(C(=O)C5CN(C)C5)CC4)nc3c2C(C)C)cn2ncnc2c1C [Example 828] |

More lines, now with the values behind:

| Compound | IC50 (human TLR9; [1]) | IC50 (human TLR7; [2]) | IC50 (human TLR8; [3]) | IC50 (human TLR9; HEK-Blue human TLR9 cells) | IC50 (human TLR7; HEK-Blue human TLR7 cells) | IC50 (human TLR8; HEK-Blue human TLR8 cells) |
| --- | --- | --- | --- | --- | --- | --- |
| Cc1c(-c2[nH]c3ccc(N4[C@@H](C)CN(CCC(N)=O)C[C@@H]4C)nc3c2C(C)C)cn2ncnc2c1C [Example 753] | 27900 nM | […] | 12 nM |  |  |  |
| Cc1c(-c2[nH]c3ccc(N4C[C@H]5C[C@@H](C4)N5CCC(N)=O)nc3c2C(C)C)cn2ncnc2c1C [Example 756] | 9060 nM | 3.9 nM | 6 nM |  |  |  |
| Cc1c(-c2[nH]c3ccc(N4C[C@H](C)N(CCC(N)=O)[C@@H](C)C4)nc3c2C(C)C)cn2ncnc2c1C [Example 758] | 18200 nM | 0.89 nM | 1.7 nM |  |  |  |
| Cc1c(-c2[nH]c3ccc(N4C[C@H](C)N(CC(N)=O)[C@@H](C)C4)nc3c2C(C)C)cn2ncnc2c1C [Example 759] | 38200 nM | 3.8 nM | 14 nM |  |  |  |
| Cc1c(-c2[nH]c3ccc(N4C[C@H](C)N(C(=O)CN(C)C)[C@@H](C)C4)nc3c2C(C)C)cn2ncnc2c1C [Example 760] | 7630 nM | 4.2 nM | 27 nM |  |  |  |
| Cc1c(-c2[nH]c3ccc(N4C[C@H](C)N(C(=O)CCN(C)C)[C@@H](C)C4)nc3c2C(C)C)cn2ncnc2c1C [Example 761] | 8170 nM | 9 nM | 14 nM |  |  |  |
| Cc1c(-c2[nH]c3ccc(N4CCN(C(=O)CCN(C)C)[C@@H](C)C4)nc3c2C(C)C)cn2ncnc2c1C [Example 790] | 8810 nM | 0.42 nM | 0.85 nM |  |  |  |
| Cc1c(-c2[nH]c3ccc(N4C[C@H](C)N(C(C)C)C[C@@H]4C)nc3c2C(C)C)cn2ncnc2c1C [Example 793] | 7830 nM | 1.4 nM | 1.4 nM |  |  |  |
| Cc1c(-c2[nH]c3ccc(N4C[C@@H](C)N(CCC(N)=O)C[C@H]4C)nc3c2C(C)C)cn2ncnc2c1C [Example 798] |  |  |  | 22300 nM | 4.2 nM | 5.7 nM |
| Cc1c(-c2[nH]c3ccc(N4C[C@@H](C)N(CC(N)=O)C[C@H]4C)nc3c2C(C)C)cn2ncnc2c1C [Example 799] |  |  |  | > 50000 nM | 5 nM | 21 nM |
| Cc1c(-c2[nH]c3ccc(N4CCN(CC(C)(C)O)C[C@@H]4C)nc3c2C(C)C)cn2ncnc2c1C [Example 802] |  |  |  | 17900 nM | 3 nM | 0.65 nM |
| Cc1c(-c2[nH]c3ccc(N4CCN(CC(=O)N(C)C)C[C@@H]4C)nc3c2C(C)C)cn2ncnc2c1C [Example 803] |  |  |  | 39700 nM | 4.3 nM | 4 nM |
| Cc1c(-c2[nH]c3ccc(N4CCN(CCCS(C)(=O)=O)C[C@H]4C)nc3c2C(C)C)cn2ncnc2c1C [Example 806] |  |  |  | 29400 nM | 1.1 nM | 1.1 nM |
| Cc1c(-c2[nH]c3ccc(N4CCN(C(=O)CN(C)C)C[C@H]4C)nc3c2C(C)C)cn2ncnc2c1C [Example 808] |  |  |  | 8950 nM | 0.19 nM | 1.4 nM |
| Cc1c(-c2[nH]c3ccc(N4CCN(C5COC5)C[C@@H]4C)nc3c2C(C)C)cn2ncnc2c1C [Example 813] |  |  |  | > 50000 nM | 3.7 nM | 9.1 nM |
| Cc1c(-c2[nH]c3ccc(N4CCN(C5CCS(=O)(=O)CC5)C[C@@H]4C)nc3c2C(C)C)cn2ncnc2c1C [Example 815] |  |  |  | > 50000 nM | 1.8 nM | 1.4 nM |
| Cc1c(-c2[nH]c3ccc(N4CCN[C@H](C)C4)nc3c2C(C)C)cn2ncnc2c1C [Example 822] |  |  |  | 6910 nM | 1.1 nM | 0.24 nM |
| Cc1c(-c2[nH]c3ccc(N4CCN(C(=O)CCN(C)C)C[C@H]4C)nc3c2C(C)C)cn2ncnc2c1C [Example 823] |  |  |  | 6930 nM | 0.49 nM | 1.2 nM |
| Cc1c(-c2[nH]c3ccc(N4CCN(C(=O)CNC5CC5)C[C@@H]4C)nc3c2C(C)C)cn2ncnc2c1C [Example 826] |  |  |  | 15700 nM | 0.7 nM | 1 nM |
| Cc1c(-c2[nH]c3ccc(N4CCN(C(=O)CNC(C)C)C[C@@H]4C)nc3c2C(C)C)cn2ncnc2c1C [Example 827] |  |  |  | 4850 nM | 0.46 nM | 0.34 nM |
